The values that follow come from ChEMBL document CHEMBL1140403, “Carbonic anhydrase inhibitors: inhibition of cytosolic/tumor-associated carbonic anhydrase isozymes I, II, and IX with benzo[b]thiophene 1,1-dioxide sulfonamides” (Bioorg Med Chem Lett, 2005).

In test [1] the target is Carbonic anhydrase 9 (Homo sapiens, UniProt Q16790).
Description: Inhibitory activity against catalytic domain of human cloned Carbonic anhydrase IX by the CO2 hydration method
In test [2] the target is Carbonic anhydrase 1 (Homo sapiens, UniProt P00915).
Description: Inhibitory activity against human cloned Carbonic anhydrase I by the CO2 hydration method
Test [3] addresses Carbonic anhydrase 2 (Homo sapiens, UniProt P00918).
Description: Inhibitory activity against human cloned Carbonic anhydrase II by the CO2 hydration method

Structures are written as SMILES. Some results are limits rather than exact numbers.

Chain of Carbonic anhydrase 1 (P00915 whole entry): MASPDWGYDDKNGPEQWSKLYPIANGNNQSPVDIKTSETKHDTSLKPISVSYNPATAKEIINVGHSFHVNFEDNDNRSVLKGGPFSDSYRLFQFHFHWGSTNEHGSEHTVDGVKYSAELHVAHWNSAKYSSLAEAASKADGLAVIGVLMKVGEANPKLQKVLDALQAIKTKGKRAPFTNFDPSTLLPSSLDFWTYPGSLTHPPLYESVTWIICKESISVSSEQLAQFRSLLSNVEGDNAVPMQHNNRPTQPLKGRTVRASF

Turning to `NS(=O)(=O)c1ccc2c(c1)S(=O)(=O)CC2`, the Ki in test [1] was 0.01 µM; in test [2] it was 0.072 µM; in test [3], 0.0088 µM.

Regarding `NS(=O)(=O)c1ccc2c(c1)C=CS2(=O)=O`, the Ki in test [1] was 0.013 µM; in test [2], 0.075 µM; in test [3], 0.0074 µM.

Turning to `NS(=O)(=O)c1ccc2c(c1)S(=O)(=O)C=C2`, the inhibitory constant (Ki) turned out to be 0.015 µM in test [1], 0.063 µM in test [2] and 0.0075 µM in test [3].

For `CC1=CS(=O)(=O)c2cc(S(N)(=O)=O)ccc21`, the Ki was found to be 0.013 µM in test [1], 0.085 µM in test [2] and 0.0083 µM in test [3].

As for `NS(=O)(=O)c1ccc2c(c1)S(=O)(=O)CC2OCc1ccccc1` (stereo not given), the Ki in test [1] came to 0.0028 µM; in test [2], 0.138 µM; in test [3], 0.0079 µM.

In the case of `O=S1(=O)C=Cc2ccc(S(=O)(=O)NCC3CC3)cc21`, the values for the Ki in test [1], in test [2] and in test [3] were 0.076 µM, 0.493 µM and 0.475 µM, respectively.

In the case of `O=S1(=O)C=Cc2ccc(S(=O)(=O)NCc3ccccc3)cc21`, the inhibitory constant (Ki) in test [1], in test [2] and in test [3] was greater than 1 µM in each case.

For `COc1cccc(NS(=O)(=O)c2ccc3c(c2)C=CS3(=O)=O)c1`, the Ki in test [1], in test [2] and in test [3] was greater than 1 µM each time.

`CCCCOC1CS(=O)(=O)c2cc(S(N)(=O)=O)ccc21` (stereo not given): the inhibition constant (Ki) in test [1] was 0.0031 µM; in test [2], 0.104 µM; in test [3], 0.0063 µM.

Turning to `CCNS(=O)(=O)c1ccc2c(c1)S(=O)(=O)C=C2`, the results for the Ki in test [1], in test [2] and in test [3] were 0.362 µM, 0.53 µM and 0.436 µM, respectively.
